Laboratory results taken from patent publication US20260184675A1, “CHIRAL ISOMERIC SULFITE COMPOUND AND APPLICATION THEREOF” (Chengdu Hanova BioSciences Co., Ltd, priority 2024, published 2026).

Legend:
[1] = tested on: pest eggs of Tetranychus cinnabarinus; test: Effect on hatching of pest eggs of Tetranychus cinnabarinus, leaf disc method; type: in vivo; settings: for Hatching rate (%): 7 days after insecticide delivery; for inhibitory effect on the hatching of pest eggs of Tetranychus cinnabarinus (in words): 1 ppm
Description: (§1) • (1) Preparation of leaf discs containing eggs: 20 female adult mites of Tetranychus cinnabarinus were transferred onto leaf discs of Vicia faba with a diameter of 2.0 cm (with wetted filter paper at the bottom), then covered it with a lidded culture dish and cultivated under moisturizing conditions, the adult mites were removed within 36 hours and microscopic examination and counting were performed on leaf discs containing eggs. • (2) Investigation of egg population base: Before pesticide soaking, a microscopic examination was conducted on the egg basic number of each leaf disc, with 2 replicates set for each treatment. • (3) Pesticide soaking treatment: The leaf butterflies loaded with mite eggs were soaked in clear water and sulfite compounds for 10 seconds, respectively, then taken out and cultivated under moisturizing conditions. Each treatment should be repeated for no less than 3 times. • (4) Cultivation and observation: The […] were cultivated under normal conditions. Five days after insecticide delivery, the hatching status of mite eggs was investigated. • Note: The temperature and humidity conditions of the constant temperature and humidity incubator after the treatment should be controlled so as to avoid excessive temperature differences, which may cause generation and dripping of condensate water in the culture dish, resulting in abnormal death of eggs due to soaking in water; it is also necessary to ensure sufficient strong ambient light, without directing irradiating the leaves. • (5) Survey of Results: The experimental materials of each treatment group were regularly hydrated and moisturized, and the hatching of eggs was observed. On the 7th day after insecticide delivery, the number of hatched eggs for each treatment was recorded, and the survey of results was recorded in the original notebook. According to the experimental requirements and characteristics of agents, the survey time can be shortened or extended. • 1) Surveying and recording the number of hatched eggs for each treatment. • 2) Photographing and recording whether there was any pesticide damage to the leaf discs of Vicia faba. • 3) Recording the developmental status of experimental mite eggs, behavior status of nymph mites, including abnormal phenomena such as delayed or stopped development of mite eggs, difficulty in breaking hull for nymph mites, or painful struggles after hatching, etc. • (6) Calculation method: Based on the survey data, the prevention and control effect of each treatment was calculated according to the following formula, and the calculation results were kept to two decimal places. [formula] [formula] [table]

eggs of Panonychus citri = test: Effect on hatching of eggs of Panonychus citri, leaf disc method; type: in vivo; settings: 1 ppm; for Hatching rate (%), Replicate 1 / Hatching rate (%), Replicate 2 / Hatching rate (%), Replicate 3 / Number of hatched larvae 5 days after insecticide delivery, Replicate 1 / Number of hatched larvae 5 days after insecticide delivery, Replicate 2 / Number of hatched larvae 5 days after insecticide delivery, Replicate 3: Panonychus citri eggs; for Hatching rate (%), Replicate 1 / Hatching rate (%), Replicate 2 / Hatching rate (%), Replicate 3: 5 days after delivery; for Number of hatched larvae 5 days after insecticide delivery, Replicate 1 / Number of hatched larvae 5 days after insecticide delivery, Replicate 2 / Number of hatched larvae 5 days after insecticide delivery, Replicate 3: leaf disc
Description: as §1, with “extended.” for “extended. • 1) Surveying and recording the number of hatched eggs for each treatment. • 2) Photographing and recording whether there was any pesticide damage to the leaf discs of Vicia faba. • 3) Recording the developmental status of experimental mite eggs, behavior status of nymph mites, including abnormal phenomena such as delayed or stopped development of mite eggs, difficulty in breaking hull for nymph mites, or painful struggles after hatching, etc. • (6) Calculation method: Based on the survey data, the prevention and control effect of each treatment was calculated according to the following formula, and the calculation results were kept to two decimal places. [formula] [formula] [table]”
• 1) Surveying and recording the number of hatched eggs for each treatment. • 2) Photographing and recording whether there was any pesticide damage to the leaf discs of Vicia faba. • 3) Recording the developmental status of experimental mite eggs, behavior status of nymph mites, including abnormal phenomena such as delayed or stopped development of mite eggs, difficulty in breaking hull for nymph mites, or painful struggles after hatching, etc. • (6) Calculation method: Based on the survey data, the prevention and control effect of each treatment was calculated according to the following formula, and the calculation results were kept to two decimal places.
This test adopted the method in Test Example 1 of technical section, mainly used leaf disc method to explore the effect on hatching of eggs of Panonychus citri by compounds 1-(S,S), 1-(S,R), 1-(R,R), 1-(R,S), 1′-(S,S), 1′-(S,R), 1′-(R,R), 1′-(R,S), compound 1, compound 1′, S-10, R-10, S-10′, R-10′, compound 10, compound 10′, compound 19-(S,S), 19-(S,R), 19-(R,R), 19-(R,S), 19′-(S,S), 19′-(S,R), 19′-(R,R), 19′-(R,S), compound 19, and compound 19′. The concentration of all compounds was 1 ppm.

[2] = tested on: eggs of Harmonia axyridis; test: Effect on hatching of eggs of Harmonia axyridis, egg card immersion; type: in vivo; settings: 100 ppm; for Number of hatched larvae 4 days after insecticide delivery, Replicate 1 / Number of hatched larvae 4 days after insecticide delivery, Replicate 2 / Number of hatched larvae 4 days after insecticide delivery, Replicate 3: Harmonia axyridis egg cards, immersed 30 seconds; for Hatching rate (%), Replicate 1 / Hatching rate (%), Replicate 2 / Hatching rate (%), Replicate 3: Harmonia axyridis eggs, 4 days after delivery
Text: The eggs of Harmonia axyridis cards (with approximately 20 eggs per card) were purchased from Henan Jiyuan Baiyun Industry Co., Ltd. in Henan Province. The number of eggs on the egg cards was counted as the basic number before insecticide delivery, and 5 cards were used as one treatment, with 3 replicates per treatment. After immersing the egg cards in a 100 ppm insecticide solution for 30 seconds, they were taken out and air dried, then cultivated under moisturizing conditions, and the […] were cultivated at 27° C. 4 days after insecticide delivery, the hatching status of eggs of Harmonia axyridis was investigated, and the prevention and control effect was calculated according to the following formula. [formula] [formula]

Magnaporthe grisea = type: cell-based; settings: 100 ppm; for Average antifungal rate (%) / Antifungal rate of Magnaporthe grisea (%), Replicate 1 / Antifungal rate of Magnaporthe grisea (%), Replicate 2 / Antifungal rate of Magnaporthe grisea (%), Replicate 3: 96-well plate; for Average antifungal rate (%): average of 3 replicates

SMILES	Hatching rate (%) ([1]; 0.25 mg/L, Replicate 1)	Hatching rate (%) ([1]; 0.25 mg/L, Replicate 2)	Number of hatched larvae 7 days after insecticide delivery ([1]; 0.25 mg/L, Replicate 1)	Number of hatched larvae 7 days after insecticide delivery ([1]; 0.25 mg/L, Replicate 2)	Hatching rate (%) ([1]; 0.5 mg/L, Replicate 1)	Hatching rate (%) ([1]; 0.5 mg/L, Replicate 2)	Number of hatched larvae 7 days after insecticide delivery ([1]; 0.5 mg/L, Replicate 1)	Number of hatched larvae 7 days after insecticide delivery ([1]; 0.5 mg/L, Replicate 2)	Hatching rate (%) ([1]; 1 mg/L, Replicate 1)	Hatching rate (%) ([1]; 1 mg/L, Replicate 2)	Number of hatched larvae 7 days after insecticide delivery ([1]; 1 mg/L, Replicate 1)	Number of hatched larvae 7 days after insecticide delivery ([1]; 1 mg/L, Replicate 2)	inhibitory rate against Magnaporthe grisea (in words) (Magnaporthe grisea)	Average antifungal rate (%) (Magnaporthe grisea)	Antifungal rate of Magnaporthe grisea (%), Replicate 1 (Magnaporthe grisea)	Antifungal rate of Magnaporthe grisea (%), Replicate 2 (Magnaporthe grisea)	Antifungal rate of Magnaporthe grisea (%), Replicate 3 (Magnaporthe grisea)	inhibitory effect on the hatching of pest eggs of Tetranychus cinnabarinus (in words) [1]	inhibitory effect on the hatching of eggs of Panonychus citri (in words) (eggs of Panonychus citri)	Hatching rate (%), Replicate 1 (eggs of Panonychus citri)	also measured
CC(COc1ccc(Cl)cc1Cl)OS(=O)OCCF [1′-(R,R)]	69.57%	82.22%	14	8	36.84%	36.51%	36	40	25.37%	8.00%	50	69	strong inhibitory rate	84.86%	84.82%	83.06%	86.71%	–	–	–	Hatching rate (%), Replicate 1 (eggs of Panonychus citri; listed as 1′-(R, R)): 8.33%; Hatching rate (%), Replicate 2 (eggs of Panonychus citri; listed as 1′-(R, R)): 7.07%; Hatching rate (%), Replicate 3 (eggs of Panonychus citri; listed as 1′-(R, R)): 5.51%; Number of hatched larvae 5 days after insecticide delivery, Replicate 1 (eggs of Panonychus citri; listed as 1′-(R, R)): 6; Number of hatched larvae 5 days after insecticide delivery, Replicate 2 (eggs of Panonychus citri; listed as 1′-(R, R)): 7; Number of hatched larvae 5 days after insecticide delivery, Replicate 3 (eggs of Panonychus citri; listed as 1′-(R, R)): 7; Number of hatched larvae 4 days after insecticide delivery, Replicate 1 ([2]; listed as 1′-(R, R)): 15; Number of hatched larvae 4 days after insecticide delivery, Replicate 2 ([2]; listed as 1′-(R, R)): 16; Number of hatched larvae 4 days after insecticide delivery, Replicate 3 ([2]; listed as 1′-(R, R)): 18; Hatching rate (%), Replicate 1 ([2]; listed as 1′-(R, R)): 17.05%; Hatching rate (%), Replicate 2 ([2]; listed as 1′-(R, R)): 16.84%; Hatching rate (%), Replicate 3 ([2]; listed as 1′-(R, R)): 16.22%
CC(COc1ccc(Cl)cc1Cl)OS(=O)OCCF (stereo not drawn) [Compound 1′]	69.81%	70.83%	16	21	36.24%	31.11%	42	31	0.00%	1.69%	47	58	strong inhibitory rate	94.28%	95.78%	98.76%	88.30%	excellent inhibitory effects	good inhibitory effects	0.93%	Hatching rate (%), Replicate 2 (eggs of Panonychus citri): 0.00%; Hatching rate (%), Replicate 3 (eggs of Panonychus citri): 0.00%; Number of hatched larvae 5 days after insecticide delivery, Replicate 1 (eggs of Panonychus citri): 1; Number of hatched larvae 5 days after insecticide delivery, Replicate 2 (eggs of Panonychus citri): 0; Number of hatched larvae 5 days after insecticide delivery, Replicate 3 (eggs of Panonychus citri): 0; inhibitory activity on the hatching of eggs of Harmonia axyridis (in words) [2]: strong inhibitory activities; Number of hatched larvae 4 days after insecticide delivery, Replicate 1 [2]: 6; Number of hatched larvae 4 days after insecticide delivery, Replicate 2 [2]: 4; Number of hatched larvae 4 days after insecticide delivery, Replicate 3 [2]: 7; Hatching rate (%), Replicate 1 [2]: 5.88%; Hatching rate (%), Replicate 2 [2]: 4.17%; Hatching rate (%), Replicate 3 [2]: 6.60%
CC(C)(COc1ccc(Cl)cc1Cl)OS(=O)OCCF (stereo not drawn) [Compound 10]	–	–	–	–	–	–	–	–	–	–	–	–	strong inhibitory rate	94.26%	93.89%	94.52%	94.36%	excellent inhibitory effects	good inhibitory effects	1.01%	Hatching rate (%), Replicate 2 (eggs of Panonychus citri): 0.00%; Hatching rate (%), Replicate 3 (eggs of Panonychus citri): 0.00%; Number of hatched larvae 5 days after insecticide delivery, Replicate 1 (eggs of Panonychus citri): 1; Number of hatched larvae 5 days after insecticide delivery, Replicate 2 (eggs of Panonychus citri): 0; Number of hatched larvae 5 days after insecticide delivery, Replicate 3 (eggs of Panonychus citri): 0; inhibitory activity on the hatching of eggs of Harmonia axyridis (in words) [2]: strong inhibitory activities; Number of hatched larvae 4 days after insecticide delivery, Replicate 1 [2]: 4; Number of hatched larvae 4 days after insecticide delivery, Replicate 2 [2]: 3; Number of hatched larvae 4 days after insecticide delivery, Replicate 3 [2]: 7; Hatching rate (%), Replicate 1 [2]: 4.04%; Hatching rate (%), Replicate 2 [2]: 3.85%; Hatching rate (%), Replicate 3 [2]: 5.56%
